The nature of assay [1]: Inhibition of CCDC6/RET (unknown origin) transfected in human LC2/ad cells assessed as reduction in cell viability incubated for 6 days by CellTiter Glo assay.
A short description of assay [2]: Inhibition of TEL/KDR (unknown origin) transfected in mouse Ba/F3 cells assessed as reduction in cell viability incubated for 48 hrs by brightglo-luciferase reporter gene assay.
Assay [3] is described as follows: Inhibition of KIF5B-RET (unknown origin) transfected in mouse Ba/F3 cells assessed as reduction in cell viability incubated for 48 hrs by brightglo-luciferase reporter gene assay.

This is an account of results in BindingDB's records for doi:10.1021/acsmedchemlett.0c00015 (The Genomics Institute of The Novartis Research Foundation, 2020).

As to `COc1ccc(-c2cnn3c(N)c(-c4ccccc4)c(OC4CCNCC4)nc23)cc1OC`, the IC50 in assay [1] is 160 nM; in assay [2], 3600 nM; in assay [3], 79 nM.
As for `COc1ccc(-c2cnn3c(N)c(-c4ccccc4)c(OCCCN(C)C)nc23)cc1OC`, the concentration for half-maximal inhibition (IC50) was 3000 nM in assay [2] and 70 nM in assay [3].
As to `COc1ccc(-c2cnn3c(N)c(-c4ccccc4)c(NC4CCN(C)CC4)nc23)cc1OC`, the IC50 in assay [1] was found to be 56 nM; in assay [2] it was 3100 nM; in assay [3], 31 nM.
In the case of `COc1ccc(-c2cnn3c(N)c(-c4ccccc4)c(NCCCN(C)C)nc23)cc1OC`, the IC50 was > 7900 nM in assay [2] and 56 nM in assay [3].
Turning to `COc1ccc(-c2cnn3c(N)c(-c4ccccc4)c(NC4CC(C)(C)N(C)C(C)(C)C4)nc23)cc1OC`, the IC50 worked out at 5.3 nM in assay [1], 990 nM in assay [2] and 1.7 nM in assay [3].
As for `CN1C(C)(C)CC(Nc2nc3c(-c4ccc(C(=O)N5C[C@@H]6C[C@H]5CO6)cc4)cnn3c(N)c2-c2ccccc2)CC1(C)C`, the IC50 in assay [1] was 16 nM; in assay [2], 1300 nM; in assay [3] it was 5.4 nM.
As for `COC(=O)N1CCN(C(=O)c2ccc(-c3cnn4c(N)c(-c5ccccc5)c(NC5CC(C)(C)N(C)C(C)(C)C5)nc34)cc2)CC1`, the IC50 in assay [1] came to 15 nM; in assay [2] it was 890 nM; in assay [3], 3.3 nM.
With `CN1C(C)(C)CC(Nc2nc3c(-c4ccc(C(=O)N5CCN(S(C)(=O)=O)CC5)cc4)cnn3c(N)c2-c2ccccc2)CC1(C)C`, the IC50 in assay [1] was determined as 6.2 nM; in assay [2], 1100 nM; in assay [3] it was 6.3 nM.
